Laboratory results as given in US9011945B2, “Composition and method for neuroprotection against excitotoxic injury” (priority 2008, dated 2015).
Where a name gives a salt, the structure may show the parent alone.

Experiments:
[1] = test system: Na+, K+-ATPase; test: Na+, K+-ATPase activity of synaptosomes after excitotoxic injury (Example 1); type: in vivo, mice; conditions: striatum synaptosomes 24 hr after excitotoxic injury
Method: (§1) Twenty-four hours after excitotoxic injury, mice were sacrificed by rapid decapitation under anesthesia. The lesioned (left) hemisphere was dissected into striatal and nonstriatal areas. The contralateral hemisphere was then dissected into the corresponding parts. Synaptosomes were prepared essentially as described previously (Andersen J M, Myhre O, Fonnum F. 2003. Discussion of the role of the extracellular signal-regulated kinase-phospholipase A2 pathway in production of reactive oxygen species in Alzheimer's disease. Neurochem Res 28: 319-326.). Briefly, different regions of the brain were removed and placed on ice. […]
(§2) ATPase activity was determined by measuring the amount of inorganic phosphate (Pi) released from the substrate ATP according to a previously described colorimetric method. The method permitted the quantification of Na^+, K^+-ATPase and Mg^2+-ATPase activity in the same sample. […] Optical density at 630 nm was determined by an ELISA reader (Dynatech MR-7000). The absorbance values obtained were converted to activity values by linear regression using a standard curve for sodium monobasic phosphate included in the assay at various concentrations. […] Protein concentration was determined colorimetrically with a commercial bicinchoninic acid kit (Pierce, Rockford, Ill.).

[2] = test system: NMDA-induced neurotoxicities; test: Elevated plus maze with icv NMDA (Example 2)
Method: In this example, the combination of TP with M (memantine) in three different dosage ratios of 6:1, 3:1, and 10:1 respectively; these are TPM6 (TP 30 mg/kg/day:M 5 mg/kg/day), TPM3 (TP 15 mg/kg/day:M 5 mg/kg/day) and TPM10 (TP 30 mg/kg/day:M 3 mg/kg/day), respectively. Their neuroprotective effects were evaluated after pretreatment for fourteen days or one day prior to the intracerebroventricular injection (icy) of 8 mM NMDA (3 μl).
For testing, mice were individually placed in the center of the maze facing a closed arm and allowed 5 min of free exploration. The number of entries into open arms, the number of entries into closed arms, and the total time spent in the open arms and total time spent in the closed arms were measured. Entry was defined as all four paws in the arms.

[3] = test system: NMDA-induced seizures (icv NMDA); test: NMDA-induced seizure score (Example 2); type: in vivo, mice; conditions: pretreatment before icv 8 mM NMDA (3 μl); control vehicle 90±10%
Text: In NMDA-treated mice, seizures developed through a sequence of paroxysmal scratching, hypermotility and aircling, tonic-clonic convulsions and, occasionally, death. The following semi-quantitative scale was used for the examination of excitotoxic severity: 0, no response; 1, excessive grooming plus paroxysmal scratching; 2, mild hypermotility; 3, extensive hypermotility and circling; 4, forepaw clonus plus tail hypertonus; 5, generalized tonic-clonic convulsions; 6, “status epilepticus” and death (Marganella et al. 2005. Comparative effects of levobupivacaine and racemic bupivacaine on excitotoxic neuronal death in culture and N-methyl-D-aspartate-induced seizures in mice. Eur. J. Pharmacol. 518: 111-115). The latency (in sec) for generalized (clonic or tonic-clonic convulsions) seizures was also determined.

[4] = test system: NMDA-induced neurotoxicities; test: Rotarod motor equilibrium performance with icv NMDA (Example 2)
Method: Their neuroprotective effects were evaluated after pretreatment for fourteen days or one day prior to the intracerebroventricular injection (icy) of 8 mM NMDA (3 μl).
One day before the experiment, mice were tested through ten consecutive sessions to stay on the rod and reach the cut off time of 180 s. One day after injection, mice were tested again. The retention time, defined as total time (sec) remaining on the rod, was recorded at each session.

[5] = test system: excitotoxic injury (NMDA injected into the left striatum); test: Locomotor activity test before and after intrastriatal NMDA excitotoxic injury (Example 1); type: in vivo; conditions: mice, oral gavage 2 days before intrastriatal NMDA; tested 24 hr after injury; n=8
Text: Memantine hydrochloride (>98.5% white crystalline powder) was supplied by Lotus Pharmaceutical Co., Ltd. (Taipei, Taiwan). Tea polyphenols were isolated from Longjing green tea with the following composition: epigallocatechin, 14.69%; catechin, 1.13%; epigallocatechin-3-gallate, 41.34%; epicatechin, 5.47%; gallocatechin-3-gallate, 5.16%; epicatechin-3 gallate, 12.54%; coffein, 0.95%; and other catechin derivatives, 18% (Yeh C W, Chen W J, Chiang C T, Lin-Shiau S Y, Lin J K. 2003. Suppression of fatty acid synthase in MCF-7 breast cancer cells by tea and tea polyphenols: a possible mechanism for their hypolipidemic effects. Pharmacogenomics J 3: 267-276.). Memantine (10 mg/kg/day), tea polyphenol (60 mg/kg/day), or a combination (memantine 5 mg/kg/day plus tea polyphenol 30 mg/kg/day) was dissolved in distilled water and administered by oral gavage for 2 consecutive days before causing excitotoxic injury. The experimental design had 5 groups: the sham operation group, the control group, the memantine group, the tea polyphenol group, and the tea polyphenol plus memantine group.
Weight and rectal temperature of each mouse were recorded before the surgical procedure. Anesthesia was induced with 5% chloral hydrate (400 mg/kg). […] Throughout the experimental procedure, mouse rectal temperature was monitored and maintained at 37.0° C.±0.5° C. […]

[6] = test system: mitochondrial succinate reductase; test: Mitochondrial reductase activity, MTT test (Example 1); type: in vivo, mice; conditions: striatum, 24 hr after excitotoxic injury; control group 74.52%±4.86%
Method: (§3) Twenty-four hours after excitotoxic injury, mice were sacrificed by rapid decapitation under anesthesia. The lesioned (left) hemisphere was dissected into striatal and nonstriatal areas. The contralateral hemisphere was then dissected into the corresponding parts. Synaptosomes were prepared essentially as described previously (Andersen J M, Myhre O, Fonnum F. 2003. Discussion of the role of the extracellular signal-regulated kinase-phospholipase A2 pathway in production of reactive oxygen species in Alzheimer's disease. Neurochem Res 28: 319-326.). Briefly, different regions of the brain were removed and placed on ice. Specimens with the same areas and treatment conditions were pooled (n=2) and subjected to homogenization on ice in 10 volumes of 0.32M sucrose. Homogenates were centrifuged at 4° C. for 10 min at 600 g. The supernatant was then diluted 1:1 with 1.3M sucrose to obtain a suspension with a final sucrose concentration of 0.8M. This suspension was subjected to centrifugation at 20,000 g for 30 min at 4° C., yielding a myelin-rich supernatant and a pellet (P2) consisting of synaptosomes free of myelin. […]
Mitochondrial metabolic function was assessed by the conversion of the dye methylthiazoletetrazolium (MTT) to purple formazan. […] The formation of formazan was quantitated spectrophotometrically at 570 nm using a Microplate Reader.

[7] = test system: NO levels; test: NO levels of brain synaptosomes (Example 2); type: in vivo, mice; conditions: FIG. 11E
[8] = test system: NMDA-decreased locomotor activities; test: Open field locomotor activity test with icv NMDA (Example 2)
Method: In this example, the combination of TP with M (memantine) in three different dosage ratios of 6:1, 3:1, and 10:1 respectively; these are TPM6 (TP 30 mg/kg/day:M 5 mg/kg/day), TPM3 (TP 15 mg/kg/day:M 5 mg/kg/day) and TPM10 (TP 30 mg/kg/day:M 3 mg/kg/day), respectively.
A large colorless rectangular box with a metallic grid floor was used (70-cm wide, 90-cm long and 60-cm high). The photobeam activity monitors (TruScan coulbourn instruments) was used for measuring real-time X-Y activity track-type plots. Overall pulses were measured in an electromechanical counter as a gross measure of activity and recorded by a PC. Each mouse was allowed to move freely for 5 min but data were not scored, and then the number of squares crossed and the plots of tracking were counted during a period of 30 min for all experiments and quantification of data was by TruScan99 software.

[9] = test system: Mg2+-ATPase; test: Mg2+-ATPase activity of synaptosomes after excitotoxic injury (Example 1); type: in vivo, mice; conditions: striatum synaptosomes 24 hr after excitotoxic injury
Method: as §1, §2

[10] = test system: synaptosomal reactive oxygen species; test: Synaptosomal reactive oxygen species formation, DCFH-DA (Example 1); type: in vivo, mice; conditions: mouse excitotoxic injury
Method: as §3, with “g.” for “g. The supernatant was then diluted 1:1 with 1.3M sucrose to obtain a suspension with a final sucrose concentration of 0.8M. This suspension was subjected to centrifugation at 20,000 g for 30 min at 4° C., yielding a myelin-rich supernatant and a pellet (P2) consisting of synaptosomes free of myelin.”
Dichlorofluorescein-diacetate (DCFH-DA), a nonfluorescent cell-permeable compound, diffuses passively across cell membranes. […] Plates were incubated with shaking at 37° C. for 30 min before measurement of fluorescence using a Microplate Fluorometer (Labsystems, Helsinki, Finland) with an excitation wavelength of 488 nm, an emission wavelength of 525 nm, and a band width of 5 nm. […] Synaptosomal protein concentration was determined with Pierce BCA reagents according to instructions provided. […]

[11] = test system: intrasynaptosomal Ca2+ concentration; test: Intrasynaptosomal Ca2+ concentration, Fluo-3/AM (Example 1); type: in vivo, mice; conditions: striatum, 4 hr after excitotoxic injury; control group 145.62%±7.16%; n=10
Method: Intrasynaptosomal Ca^2+ concentration [Ca^2+]i was determined with the calcium-sensitive fluorochrome fluo-3-acetoxymethyl (Fluo-3/AM) in the presence of acetoxymethyl ester. First, 100 L of P2 synaptosomes was prepared as described above, and 2.5 mM Fluo-3/AM (Sigma, St. Louis, Mo.) was added to each well (final reaction volume of 250 L) and incubated at 37° C. for 30 min. Fluorescence was measured in a Microplate Fluorometer (Labsystems, Helsinki, Finland) with an excitation wavelength of 490 nm and an emission wavelength of 526 nm.

[12] = test system: mitochondrial membrane potential (ΔΨm); test: Mitochondrial membrane potential, DiOC6(3) (Example 1); type: in vivo, mice; conditions: striatum, 24 hr after excitotoxic injury; control group 85.06%±2.58%
Method: as §1
Mitochondrial membrane potential (ΔΨm) was measured using the fluorescent dye 3,3-diexyloxacarbocyanine iodide, DiOC6(3) (Chen Y C, Lin-Shiau S Y, Lin J K, 1998b. Involvement of reactive oxygen species and caspase 3 activation in arsenite-induced apoptosis. J Cell Physiol 177: 324-333.). Synaptosomes were prepared as described above and diluted 1:40 in Tris buffer, followed by the addition of DiOC6(3) to a final concentration of 1.5 M. After 20 min of incubation at 37° C., fluorescence was measured in a Microplate Fluorometer (Labsystems, Helsinki, Finland) with an excitation wavelength of 484 nm and an emission wavelength of 501 nm.

CC12CC3CC(C)(C1)CC(N)(C3)C2 [memantine, Memantine hydrochloride]
attenuation of decreased Na+, K+-ATPase activity [1]: only minimally attenuated | attenuation of increased retention time in the opened plus maze by NMDA ([2]; drug one day before and consecutive 14 days following NMDA, FIG. 10C): followed in order by TPM6, TPM10 and then M | retention time in the open field of elevated plus maze, drug alone ([2]; prolonged use alone, FIG. 8C): prominently increased retention time | attenuations of NMDA-induced seizure scores in percentage [3]: 60±10% | reversal of disturbance in rotarod motor equilibrium function induced by NMDA ([4]; drug one day before and consecutive 14 days following NMDA, FIG. 10D): reversed | motor equilibrium function, drug alone ([4]; prolonged use alone, FIG. 8D): reduced the motor equilibrium function | improvement of impaired locomotor activity after excitotoxic injury [5]: substantial but nonsignificant improvement | mitochondrial reductase activity (MTT test) [6]: 93.53%±8.53% | NO levels of brain synaptosomes increased by NMDA [7]: decreased | locomotor activities in the open field, drug alone ([8]; consecutive 14 days, before NMDA, FIG. 7): increased locomotor activities | reversal of decreased locomotor activities induced by NMDA ([8]; drug one day before and consecutive 14 days following NMDA, FIG. 10A): partially reversed | reversal of decrease in jump activity induced by NMDA ([8]; drug one day before and consecutive 14 days following NMDA, FIG. 10B): partially reversed | order of neuroprotective potencies against NMDA-decreased locomotor activities ([8]; pretreatment 14 days, FIG. 8A): TPM10>TPM6>TPM3>M | order of neuroprotective potencies against the decreased jump exploratory effect of NMDA ([8]; pretreatment 14 days, FIG. 8B): M>TPM6>TPM3>TPM10 | NMDA-decreased locomotor activities, prevention by pretreatment ([8]; pretreatment 14 days, icv 3 μl of 8 mM NMDA): prevented | decrease in jump activity, drug alone ([8]; pretreatment alone for consecutive 14 days, FIG. 8B): TPM6>M>TPM10 | attenuation of decreased Mg2+-ATPase activity [9]: only minimally attenuated | effect on increased synaptosomal ROS production [10]: does not have any significant effects | intrasynaptosomal Ca2+ concentration [Ca2+]i [11]: 123.04%±6.70% | mitochondrial membrane potential (ΔΨm) [12]: 94.23%±4.19%
